Results from patent publication US8609607B2, “Modified defensins and their use” (The United States of America as represented by the …, priority 2002, dated 2013).

Columns and labels:
[1] = system: Escherichia coli ATCC43827; experiment: radial diffusion assay, antibacterial activity; type: cell-based; settings: compared to unmodified HNP-1; 16-256 nM; FIG. 2A
Method: (§1) The antibacterial activity of various concentrations of HNP-1 and ADP-ribosyl-HNP-1 (16 nM, 32 nM, 64 nM, 128 nM, 256 nM) on Escherichia coli ATCC43827 (American Type Culture Collection, Rockville, Md.) was evaluated by the radial diffusion assay (Takemura et al., Antimicrob. Agents Chemother. 40: 2280-2284, 1996). Antimicrobial activity was positively correlated with the diameter of a zone cleared of E. coli growth (minus the diameter of the central well (3 mm)).

E. coli = experiment: radial diffusion assay, effect of ADP-ribosylated HNP-1 on HNP-1 activity; type: cell-based; settings: HNP-1 100 nM incubated 1 hour at 37° C. with 0-800 nM ADP-ribosylated HNP-1; FIG. 3A
Method: as §1
HNP-1 (100 nM) was incubated for 1 hour at 37° C. with various concentrations of ADP-ribosylated HNP-1 (0-800 nM) before the initiation of the E. coli radial diffusion assay. The radial diffusion assay was performed as described in Example 4.

A549 cells [2] = experiment: chromium release assay, defensin cytotoxicity; type: cell-based; settings: compared to unmodified HNP-1; 1.5-24 μM, 18 hours, 37° C.; FIG. 2B
Method: (§2) Chromium (^51Cr)-labeled A549 cells (American Type Culture Collection) were incubated (18 hours, 37° C.) in 100 μl of serum-free RPMI (Gibco Fluids Inc., Rockville, Md.) containing various concentrations of HNP-1, synthetic HNP-1, or ADP-ribosyl-HNP-1 (1.5 μM, 3 μM, 6 μM, 12 μM, 24 μM) to quantify defensin cytotoxicity. Cytotoxicity was positively correlated with the amount of chromium released from lysed cells (Panyutich et al., Am. J. Respir. Cell. Mol. Biol. 12:351-357, 1995). Percent of lysis was calculated as (cpmexp−cpmspont)/(cpmmax−cpmspont)×100 (exp, experimental conditions; max, maximal release; spont, spontaneous release).

A549 cells [3] = experiment: chromium release assay, effect of ADP-ribosylated HNP-1 on HNP-1 cytotoxic activity; type: cell-based; settings: HNP-1 12 μM incubated 1 hour at 37° C. with 0-12 μM ADP-ribosyl-HNP-1; FIG. 3B
Method: as §2
HNP-1 (12 μM) was incubated with various concentrations of ADP-ribosyl-HNP-1 (0-12 μM) for 1 hour at 37° C. before the initiation of the chromium release assay. The chromium release assay was performed as described in Example 5. HNP-1 and ADP-ribosyl-HNP-1 (0-12 μM) were included as controls.

CD3+ T-cells = experiment: T cell chemotaxis assay; type: cell-based, human; settings: 0.025 to 25 nM, 4 hours; compared to unmodified HNP; FIG. 4C
Method: CD3^+ T-cells were isolated from human peripheral blood prepared by leukapheresis (NIH, Department of Transfusion Medicine, Bethesda, Md.) (Chertov et al, J. Biol. Chem. 271:2935-2940, 1996) and suspended in migration medium (RPMI 1640, 0.5% bovine serum albumin, 25 mM HEPES). Inserts coated with collagen IV (Becton Dickinson Labware, Bedford, Mass.) were placed into 24-well culture plates to form upper and a lower chambers in each well. Upper chambers were wetted with migration medium, then 500 μl of migration medium with or without ADP-ribosyl-HNP-1 or HNP-1 (0.025 to 25 nM) were added to the lower chamber. Cells were added to the upper chamber and plates were incubated at 37° C. in 5% CO2 for 4 hours. Cells incubated in the presence or absence of (macrophage inflammatory protein-1β) MIP-1β (5 ng/ml) were the positive and negative controls, respectively. Lymphocytes that had migrated to the lower chamber were harvested by centrifugation and counted in a hematocytometer. Chemotaxis percentage was calculated as follows: (number of cells migrated to the lower chamber in the experimental conditions−number of cells migrated in the negative control)/(number of cells migrated in the positive control−number of cells migrated in negative control)×100.

A549 cells [4] = experiment: IL-8 production by A549 cells (indirect ELISA); type: cell-based; settings: 12 or 24 hours
Method: A549 cells (3×10^4 cells per well) were incubated in a 96-well plate in 200 μl of serum-free RPMI medium (Gibco Fluids Inc) containing ADP-ribosyl-HNP-1 or HNP-1 (0.25, 0.75, 1.5, 3 μM). Culture medium was sampled after 12 or 24 hours of incubation and IL-8 content in the medium was assayed by indirect ELISA (FIGS. 4A and 4B) according to the manufacturer's instructions (R & D System Inc. Minneapolis, Minn.).

ADP-ribosylated HNP-1: HNP-1 (SEQ ID NO:2) mono-ADP-ribosylated by ART-1 with NAD, at arginine 14
antibacterial activity (diameter of zone cleared of E. coli growth) [1]: reduced antibacterial activity | effect on antimicrobial/cytotoxic activity of HNP-1, radial diffusion assay (E. coli): blocked the cytotoxic activity of HNP-1 in a concentration-dependent manner | cytotoxicity (lysis of 51Cr-labeled A549 cells) (A549 cells [2]): less cytotoxic than unmodified HNP-1 | effect on cytotoxic activity of HNP-1, chromium release assay (A549 cells [3]): blocked the cytotoxic activity of HNP-1 in a concentration-dependent manner | ability to recruit T cells (chemotaxis) (CD3+ T-cells): retained the ability to recruit T cells at a level that was comparable to unmodified HNP | IL-8 release into the medium versus unmodified peptide (A549 cells [4]; 0.75 μM peptide, P=0.01): significantly higher | IL-8 release into the medium versus unmodified peptide (A549 cells [4]; 1.5 μM peptide, P=0.01): significantly higher | IL-8 release into the medium versus unmodified peptide (A549 cells [4]; 3 μM peptide): no differences
